In US11142515B2, “Pyrazolyl-ureas as kinase inhibitors” (RESPIVERT LIMITED, priority 2014, dated 2021):

Tests used:
[1] = molecular target: T1, p38 MAPKα isoform (MAPK14) (Homo sapiens, UniProt Q16539); assay: p38 MAPKα enzyme inhibition (Z-LYTE FRET); type: biochemical; conditions: Table 2B, unit inferred; read-out: p38 MAPKα (Enzyme Profile)
T1 construct: purchased Life Technologies
Method: (§1) The enzyme inhibitory activities of compounds disclosed herein were determined by FRET using synthetic peptides labelled with both donor and acceptor fluorophores (Z-LYTE, Life Technologies, Paisley, UK).
The inhibitory activities of compounds of the invention against the p38 MAPKα isoform (MAPK14: Life Technologies), were evaluated indirectly by determining the level of activation/phosphorylation of the target peptide of the p38 MAPKα down-stream molecule, MAPKAP-K2. The enzyme (40 ng/mL, 2.5 μL) was incubated with the test compound (2.5 μL of either 40 μg/mL, 12 μg/mL, 4 μg/mL, 1.2 μg/mL, 0.4 μg/mL, 0.12 μg/mL, 0.04 μg/mL, 0.012 μg/mL, 0.004 μg/mL or 0.0012 μg/mL) for 2 h at RT. […] Development reagent (protease, 5 μL) was added for 1 h prior to detection in a fluorescence microplate reader (EnVision, Perkin Elmer, Waltham, Mass., USA).
(§2) In all cases, the site-specific protease cleaves non-phosphorylated peptide only and eliminates the FRET signal. Phosphorylation levels of each reaction were calculated using the ratio of coumarin emission (donor) over fluorescein emission (acceptor), for which low ratios indicate high phosphorylation and high ratios indicate low phosphorylation levels.

p38MAPKγ (MAPK12) = molecular target: T2, p38MAPKγ (MAPK12) (Homo sapiens, UniProt P53778); assay: p38 MAPKγ enzyme inhibition (Z-LYTE FRET); type: biochemical; conditions: Table 2B, unit inferred; read-out: p38 MAPKγ (Enzyme Profile)
T2 construct: purchased Life Technologies
T2 sequence (P53778 1-367): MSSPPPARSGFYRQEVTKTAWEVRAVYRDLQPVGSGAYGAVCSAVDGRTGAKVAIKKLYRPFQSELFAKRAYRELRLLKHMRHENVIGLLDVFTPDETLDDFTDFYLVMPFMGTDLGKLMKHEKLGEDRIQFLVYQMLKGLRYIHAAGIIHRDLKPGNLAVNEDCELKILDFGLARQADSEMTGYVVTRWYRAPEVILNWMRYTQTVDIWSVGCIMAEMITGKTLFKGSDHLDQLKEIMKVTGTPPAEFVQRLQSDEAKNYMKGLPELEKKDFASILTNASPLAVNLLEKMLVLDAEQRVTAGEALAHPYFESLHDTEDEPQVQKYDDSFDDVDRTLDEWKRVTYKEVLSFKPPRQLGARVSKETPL
Method: as §1
The inhibitory activities of compounds of the invention against p38MAPKγ (MAPK12: Life Technologies), were evaluated by determining the level of activation/phosphorylation of the target peptide. The enzyme (800 ng/mL, 2.5 μL) was incubated with the test compound (2.5 μL at either 40 μg/mL, 12 μg/mL, 4 μg/mL, 1.2 μg/mL, 0.4 μg/mL, 0.12 μg/mL, 0.04 μg/mL, 0.012 μg/mL, 0.004 μg/mL or 0.0012 μg/mL) for 2 h at RT. The FRET peptides (8 μM, 2.5 μL), and appropriate ATP solution (2.5 μL, 400 μM) were then added to the enzymes/compound mixtures and incubated for 1 h at RT. Development reagent (protease, 5 μL) was added for 1 h prior to detection in a fluorescence microplate reader (EnVision, Perkin Elmer).
as §2

T1 sequence (Q16539 whole entry, canonical isoform): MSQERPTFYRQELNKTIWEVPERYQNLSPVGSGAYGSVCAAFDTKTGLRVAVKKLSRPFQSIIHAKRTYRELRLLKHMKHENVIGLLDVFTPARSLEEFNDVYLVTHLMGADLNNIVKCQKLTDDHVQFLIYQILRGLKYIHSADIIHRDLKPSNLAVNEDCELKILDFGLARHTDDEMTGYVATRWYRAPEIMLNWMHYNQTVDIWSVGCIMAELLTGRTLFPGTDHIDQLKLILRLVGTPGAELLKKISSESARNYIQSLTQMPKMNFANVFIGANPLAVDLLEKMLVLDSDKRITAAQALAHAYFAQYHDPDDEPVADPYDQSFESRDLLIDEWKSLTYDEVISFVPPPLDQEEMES

SMILES | IC50 [1] [nM] | IC50 (p38MAPKγ (MAPK12)) [nM]
CN(C)Cc1cccc(-n2nc(C(C)(C)C)cc2NC(=O)Nc2ccc(OCc3ccnc(Nc4cnccn4)c3)c3ccccc23)c1 [Example 261, 1-(3-(tert-butyl)-1-(3-((dimethylamino)methyl)phenyl)-1H-pyrazol-5-yl)-3-(4-((2-(pyrazin-2-ylamino)pyridin-4-yl)methoxy)naphthalen-1-yl)urea] | < 0.47 | 146
COc1cnc(Nc2cc(COc3ccc(NC(=O)Nc4cc(C(C)(C)C)nn4-c4ccc(C)cc4)c4ccccc34)ccn2)cn1 [Example 105, 1-(3-(tert-butyl)-1-(p-tolyl)-1H-pyrazol-5-yl)-3-(4-((2-((5-methoxypyrazin-2-yl)amino)pyridin-4-yl)methoxy)naphthalen-1-yl) urea] | < 1.59 | 4560
Cc1ccc(-n2nc(C(C)(C)C)cc2NC(=O)Nc2ccc(OCc3ccnc(Nc4cncc(C5CCOCC5)n4)c3)c3ccccc23)cc1 [Example 161, 1-(3-(tert-butyl)-1-(p-tolyl)-1H-pyrazol-5-yl)-3-(4-((2-((6-(tetrahydro-2H-pyran-4-yl)pyrazin-2-yl)amino)pyridin-4-yl)methoxy)naphthalen-1-yl)urea] | 10 | 74
COCCN(CCOC)C(=O)c1cnc(Nc2cc(COc3ccc(NC(=O)Nc4cc(C(C)(C)C)nn4-c4cccc(C)c4)c4ccccc34)ccn2)cn1 [Example 76] | 15 | 148
COc1ccc(-n2nc(C(C)(C)C)cc2NC(=O)Nc2ccc(OCc3ccnc(Nc4cnc(C)c(C)n4)c3)c3ccccc23)cc1C [Example 135, 1-(3-(tert-butyl)-1-(4-methoxy-3-methylphenyl)-1H-pyrazol-5-yl)-3-(4-((2-((5,6-dimethylpyrazin-2-yl)amino)pyridin-4-yl)methoxy)naphthalen-1-yl) urea] | 52 | > 15200
CCc1ncc(Nc2cc(COc3ccc(NC(=O)Nc4cc(C(C)(C)C)nn4-c4ccc(C)cc4)c4ccccc34)ccn2)nc1C [Example 129, 1-(3-(tert-butyl)-1-(p-tolyl)-1H-pyrazol-5-yl)-3-(4-((2-((5-ethyl-6-methylpyrazin-2-yl)amino)pyridin-4-yl)methoxy)naphthalen-1-yl) urea] | 40 | > 15600
CCc1cccc(-n2nc(C(C)(C)C)cc2NC(=O)Nc2ccc(OCc3ccnc(Nc4cncc(CC)n4)c3)c3ccccc23)c1 [Example 234, 1-(3-(tert-butyl)-1-(3-ethyl-phenyl)-1H-pyrazol-5-yl)-3-(4-((2-((6-ethylpyrazin-2-yl)amino)pyridin-4-yl)methoxy)naphthalen-1-yl)urea] | 64 | > 15600
Cc1ccc(-n2nc(C(C)(C)C)cc2NC(=O)Nc2ccc(OCc3ccnc(Nc4cnc(C)c(C)n4)c3)c3ccccc23)cc1C [Example 146, 1-(3-(tert-butyl)-1-(3,4-dimethylphenyl)-1H-pyrazol-5-yl)-3-(4-((2-((5,6-dimethylpyrazin-2-yl)amino)pyridin-4-yl)methoxy)naphthalen-1-yl)urea] | 69 | 1550
CNc1cncc(Nc2cc(COc3ccc(NC(=O)Nc4cc(C(C)(C)C)nn4-c4ccc(C)cc4)c4ccccc34)ccn2)n1 [Example 120, 1-(3-(tert-butyl)-1-(p-tolyl)-1H-pyrazol-5-yl)-3-(4-((2-((6-(methylamino)pyrazin-2-yl)amino)pyridin-4-yl)methoxy)naphthalen-1-yl) urea] | 4.8 | 173
Cc1ccc(-n2nc(C(C)(C)C)cc2NC(=O)Nc2ccc(OCc3ccnc(Nc4cnccn4)c3)c3ccccc23)cc1F [Example 59] | 18 | 105
COCc1cccc(-n2nc(C(C)(C)C)cc2NC(=O)Nc2ccc(OCc3ccnc(Nc4cnc(C(=O)N5CCCC5)cn4)c3)c3ccccc23)c1 [Example 71] | 24 | 272
Cc1ccc(-n2nc(C(C)(C)C)cc2NC(=O)Nc2ccc(OCc3ccnc(Nc4cnccn4)c3)c3ccccc23)cn1 [Example 198, 1-(3-(tert-butyl)-1-(6-methylpyridin-3-yl)-1H-pyrazol-5-yl)-3-(4-((2-(pyrazin-2-ylamino)pyridin-4-yl)methoxy)naphthalen-1-yl)urea] | 10 | 111
CC(C)(C)c1cc(NC(=O)Nc2ccc(OCc3ccnc(Nc4cnccn4)c3)c3ccccc23)n(-c2ccc(F)cc2)n1 [Example 187, 1-(3-(tert-butyl)-1-(4-fluorophenyl)-1H-pyrazol-5-yl)-3-(4-((2-(pyrazin-2-ylamino)pyridin-4-yl)methoxy)naphthalen-1-yl) urea] | 16 | 180
CCc1cncc(Nc2cc(COc3ccc(NC(=O)Nc4cc(C(C)(C)C)nn4-c4ccc(C)c(F)c4)c4ccccc34)ccn2)n1 [Example 167, 1-(3-(tert-butyl)-1-(3-fluoro-4-methylphenyl)-1H-pyrazol-5-yl)-3-(4-((2-((6-ethylpyrazin-2-yl)amino)pyridin-4-yl)methoxy)naphthalen-1-yl) urea] | 25 | 259
CN(C)c1cncc(Nc2cc(COc3ccc(NC(=O)Nc4cc(C(C)(C)C)nn4-c4ccc(O)cc4)c4ccccc34)ccn2)n1 [Example 115, 1-(3-(tert-butyl)-1-(4-hydroxyphenyl)-1H-pyrazol-5-yl)-3-(4-((2-((6-(dimethyl-amino)pyrazin-2-yl)amino)pyridin-4-yl)methoxy)naphthalen-1-yl)urea] | 7.5 | 725
Cc1ccc(-n2nc(C(C)(C)C)cc2NC(=O)Nc2ccc(OCc3ccnc(Nc4cnc(C(=O)NCCO)cn4)c3)c3ccccc23)cc1 [Example 53, 5-((4-(((4-(3-(3-(tert-Butyl)-1-(p-tolyl)-1H-pyrazol-5-yl)ureido)naphthalen-1-yl)oxy)methyl)pyridin-2-yl)amino)-N-(2-hydroxyethyl)pyrazine-2-carboxamide] | 17 | 95
CCc1cncc(Nc2cc(COc3ccc(NC(=O)Nc4cc(C(C)(C)C)nn4-c4cccc(F)c4)c4ccccc34)ccn2)n1 [Example 62] | 24 | 560
COCCNC(=O)c1cnc(Nc2cc(COc3ccc(NC(=O)Nc4cc(C(C)(C)C)nn4-c4ccc(OC)c(C)c4)c4ccccc34)ccn2)cn1 [Example 132, 5-((4-(((4-(3-(3-(tert-butyl)-1-(4-methoxy-3-methyl-phenyl)-1H-pyrazol-5-yl)ureido)naphthalen-1-yl)oxy)methyl)pyridin-2-yl)amino)-N-(2-methoxyethyl)pyrazine-2-carboxamide] | 11 | > 13700
COc1cncc(Nc2cc(COc3ccc(NC(=O)Nc4cc(C(C)(C)C)nn4-c4ccc(C)s4)c4ccccc34)ccn2)n1 [Example 109, 1-(3-(tert-butyl)-1-(5-methylthiophen-2-yl)-1H-pyrazol-5-yl)-3-(4-((2-((6-methoxypyrazin-2-yl)amino)pyridin-4-yl)methoxy)naphthalen-1-yl) urea] | 115 | 1330
COc1cccc(-n2nc(C(C)(C)C)cc2NC(=O)Nc2ccc(OCc3ccnc(Nc4cnc(CO)cn4)c3)c3ccccc23)c1 [Example 178, 1-(3-(tert-butyl)-1-(3-methoxyphenyl)-1H-pyrazol-5-yl)-3-(4-((2-((5-(hydroxy-methyl)pyrazin-2-yl)amino)pyridin-4-yl)methoxy)naphthalen-1-yl)urea] | 5.8 | 36
CC(C)(C)c1cc(NC(=O)Nc2ccc(OCc3ccnc(Nc4cnc(C(=O)N5CCCC5)cn4)c3)c3ccccc23)n(-c2cccc(F)c2)n1 [Example 202, 1-(3-(tert-butyl)-1-(3-fluorophenyl)-1H-pyrazol-5-yl)-3-(4-((2-((5-(pyrrolidine-1-carbonyl)pyrazin-2-yl)amino)pyridin-4-yl)methoxy)naphthalen-1-yl)urea] | 19 | 1130
Cc1ccc(-n2nc(C(C)(C)C)cc2NC(=O)Nc2ccc(OCc3ccnc(Nc4cnc(C(=O)NCCN5CCCCC5)cn4)c3)c3ccccc23)cc1 [Example 79] | < 0.4 | 101
